Read-outs that look alike come from different tables or passages of the source. Marks after values point to notes of the source that are not given here. Non-standard residues stand in square brackets, D forms with d. Residues, ends and D or L forms follow the SMILES beside them. *: point of attachment. Doxorubicin(3'-N) = COc1cccc2c1C(=O)c1c(O)c3c(c(O)c1C2=O)C[C@@](O)(C(=O)CO)C[C@@H]3O[C@H]1C[C@H](N*)[C@H](O)[C@H](C)O1; Decanoyl(3,6,9-trioxa) = COCCOCCOCC(=O)*; Glyceroyl(2S) = O=C([C@@H](O)CO)*; Glyceroyl(2R) = O=C([C@H](O)CO)*; hArg = N=C(N)NCCCC[C@H](N)C(=O)O; X1 = O=C([C@H](O)[C@@H](O)CO)*; Chg = N[C@H](C(=O)O)C1CCCCC1; Nle = CCCC[C@H](N)C(=O)O; Glycolyl = O=C(CO)*
Tests used:
[1] = target: T1, enzymatically active free PSA (Homo sapiens, UniProt P07288); assay: Recognition (cleavage) of oligopeptide-doxorubicin conjugates by free PSA, HPLC; type: biochemical; conditions: DOX conjugate; for Time to 50% Substrate Cleavage by York PSA: PSA digestion buffer pH7.4, 140 mM NaCl, molar ratio to PSA 100 to 1
T1 construct: required for 50% cleavage of the noted oligopeptides with enzymatically active free PSA
T1 sequence (P07288 25-261): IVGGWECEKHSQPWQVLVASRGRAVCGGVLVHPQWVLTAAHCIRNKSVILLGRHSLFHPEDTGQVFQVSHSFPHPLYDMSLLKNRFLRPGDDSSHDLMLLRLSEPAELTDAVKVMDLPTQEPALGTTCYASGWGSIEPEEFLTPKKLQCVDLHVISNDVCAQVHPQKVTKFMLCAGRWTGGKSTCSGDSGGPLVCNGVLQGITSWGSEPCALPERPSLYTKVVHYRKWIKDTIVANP
Method: If no salt is indicated for the conjugate, the free conjugate was tested.

[2] = Solubility remarks (INSOLUBLE, PS, PP) printed beside the assay results of Tables 2-4; type: physicochemical; conditions: DOX conjugate in cytotoxicity test
[3] = test system: LNCap prostate tumor cells; assay: In vitro cytotoxicity, Alamar Blue assay, LNCaP; type: cell-based; conditions: 72 HRS, read-out: LNCaP Cell Kill in 72 HRS, {48 HRS} EC 50
Method: (§1) The cytotoxicities of the cleaveable oligopeptide-doxorubicin conjugates, prepared as described in Examples 3-6, against a line of cells which is known to be killed by unmodified doxorubicin was assessed with an Alamar Blue assay. Specifically, cell cultures of LNCap prostate tumor cells or DuPRO cells in 96 well plates was diluted with medium containing various concentrations of a given conjugate (final plate well volume of 200 μl ). The cells were incubated for 3 days at 37° C., 20 μl of Alamar Blue is added to the assay well. The cells were further incubated and the assay plates were read on a EL-310 ELISA reader at the dual wavelengths of 570 and 600 nm at 4 and 7 hours after addition of Alamar Blue. Relative percentage viability at the various concentration of conjugate tested was then calculated versus control (no conjugate) cultures. If no salt is indicated, the free conjugate was tested.

DuPRO cells = assay: In vitro cytotoxicity, Alamar Blue assay, DuPRO; type: cell-based; conditions: value in parentheses beside the LNCaP value, read-out: DuPRO cell kill EC 50
Method: as §1

[4] = listed as PEG(2)-ShRYQ-SL-DOX(3′)

| SMILES | Substrate cleavage by York PSA at 4 HOUR ([1]; 4 hours) | Solubility remark in Table 4 [2] | Time to 50% Substrate Cleavage by York PSA [1] | EC50 [3] | EC50 (DuPRO cells) | EC50 [3, 4] | EC50 (DuPRO cells; [4]) | Time to 50% Substrate Cleavage by York PSA (Min), value marked * ([1]; alternative PSA digestion buffer pH8.0, 25 mM NaCl, 0.5 mM CaCl2) |
| --- | --- | --- | --- | --- | --- | --- | --- | --- |
| COCCOCCOCC(=O)N[C@@H](CCCCNC(=N)N)C(=O)N[C@H](C(=O)N[C@@H](CCC(N)=O)C(=O)N[C@@H](CO)C(=O)N[C@@H](CC(C)C)C(=O)N[C@H]1C[C@H](O[C@H]2C[C@](O)(C(=O)CO)Cc3c(O)c4c(c(O)c32)C(=O)c2c(OC)cccc2C4=O)O[C@@H](C)[C@H]1O)C1CCCCC1 [PEG(2)-HomoRChgQ-SL-DOX (3′), PEG(2)-hArgChgGln-SerLeu-DOX (3′)] ({Decanoyl(3,6,9-trioxa)}-[hArg][Chg]QSL-{Doxorubicin(3'-N)}) | 12% | INSOLUBLE |  |  |  |  |  |  |
| COc1cccc2c1C(=O)c1c(O)c3c(c(O)c1C2=O)C[C@@](O)(C(=O)CO)C[C@@H]3O[C@H]1C[C@H](NC(=O)[C@H](CC(C)C)NC(=O)[C@H](CO)NC(=O)[C@H](CCC(N)=O)NC(=O)[C@@H](NC(=O)[C@H](CO)NC(=O)[C@H](CO)NC(=O)[C@@H](O)CO)C2CCCCC2)[C@H](O)[C@H](C)O1 [(l)(2,3-dihydroxypropionyl)-SerSerChgGln-SerLeu-DOX (3′)] ({Glyceroyl(2S)}-SS[Chg]QSL-{Doxorubicin(3'-N)}) |  |  | 25 min | 13 µM | > 100 µM |  |  |  |
| COc1cccc2c1C(=O)c1c(O)c3c(c(O)c1C2=O)C[C@@](O)(C(=O)CO)C[C@@H]3O[C@H]1C[C@H](NC(=O)[C@H](CC(C)C)NC(=O)[C@H](CO)NC(=O)[C@H](CCC(N)=O)NC(=O)[C@@H](NC(=O)[C@H](CCCCNC(=N)N)NC(=O)[C@H](CO)NC(=O)[C@H](O)CO)C2CCCCC2)[C@H](O)[C@H](C)O1 [(d) 2,3-dihydroxypropionyl-SerhArgChgGln-SerLeu-DOX (3′)] ({Glyceroyl(2R)}-S[hArg][Chg]QSL-{Doxorubicin(3'-N)}) |  |  | 65 min | 5.8 µM | > 100 µM |  |  |  |
| COc1cccc2c1C(=O)c1c(O)c3c(c(O)c1C2=O)C[C@@](O)(C(=O)CO)C[C@@H]3O[C@H]1C[C@H](NC(=O)[C@@H](CC(C)C)NC(=O)[C@H](CO)NC(=O)[C@H](CCC(N)=O)NC(=O)[C@@H](NC(=O)[C@H](CO)NC(=O)[C@H](CO)NC(=O)[C@H](CO)NC(=O)[C@@H](O)CO)C2CCCCC2)[C@H](O)[C@H](C)O1 [(l)(2,3-dihydroxypropionyl)SerSerSerChgGln-Ser(dLeu)-DOX (3′)] ({Glyceroyl(2S)}-SSS[Chg]QS[dL]-{Doxorubicin(3'-N)}) |  |  | 180 min | 91 µM | > 100 µM |  |  |  |
| COCCOCCOCC(=O)N[C@@H](CO)C(=O)N[C@@H](CCCCNC(=N)N)C(=O)N[C@@H](Cc1ccc(O)cc1)C(=O)N[C@@H](CCC(N)=O)C(=O)N[C@@H](CO)C(=O)N[C@@H](CC(C)C)C(=O)N[C@H]1C[C@H](O[C@H]2C[C@](O)(C(=O)CO)Cc3c(O)c4c(c(O)c32)C(=O)c2c(OC)cccc2C4=O)O[C@@H](C)[C@H]1O [PEG(2)-SHomoRYQ-SL-DOX(3′), PEG(2)-SerhArgTyrGln-SerLeu-DOX(3′)] ({Decanoyl(3,6,9-trioxa)}-S[hArg]YQSL-{Doxorubicin(3'-N)}) |  |  | 35 min |  |  | 4.5 µM | > 100 µM |  |
| COCCOCCOCC(=O)N[C@@H](CO)C(=O)N[C@@H](CCCCNC(=N)N)C(=O)N[C@H](C(=O)N[C@@H](CCC(N)=O)C(=O)N[C@@H](CO)C(=O)N[C@@H](CC(C)C)C(=O)N[C@H]1C[C@H](O[C@H]2C[C@](O)(C(=O)CO)Cc3c(O)c4c(c(O)c32)C(=O)c2c(OC)cccc2C4=O)O[C@@H](C)[C@H]1O)C1CCCCC1 [PEG(2)-SHomoRChgQ-SL-DOX (3′), PEG(2)-SerhArgChgGln-SerLeu-DOX (3′)] ({Decanoyl(3,6,9-trioxa)}-S[hArg][Chg]QSL-{Doxorubicin(3'-N)}) |  |  | 25 min | 8.1 µM | > 100 µM |  |  |  |
| CCCC[C@H](NC(=O)[C@H](CO)NC(=O)[C@H](CCC(N)=O)NC(=O)[C@H](Cc1ccc(O)cc1)NC(=O)[C@H](CO)NC(=O)[C@H](CO)NC(=O)[C@H](CCCCNC(=N)N)NC(=O)CO)C(=O)N[C@H]1C[C@H](O[C@H]2C[C@](O)(C(=O)CO)Cc3c(O)c4c(c(O)c32)C(=O)c2c(OC)cccc2C4=O)O[C@@H](C)[C@H]1O [2-hydroxyacetyl-HomoRSSYQ-SNle-DOX (3′), 2-hydroxyacetyl-hArgSerSerTyrGln-SerNle-DOX (3′)] (Glycolyl-[hArg]SSYQS[Nle]-{Doxorubicin(3'-N)}) |  |  |  | 3.6 µM | > 100 µM |  |  | 60* Min |
| COc1cccc2c1C(=O)c1c(O)c3c(c(O)c1C2=O)C[C@@](O)(C(=O)CO)C[C@@H]3O[C@H]1C[C@H](NC(=O)[C@H](CC(C)C)NC(=O)[C@H](CO)NC(=O)[C@H](CCC(N)=O)NC(=O)[C@@H](NC(=O)[C@H](CCCCNC(=N)N)NC(=O)[C@H](CO)NC(=O)[C@H](O)[C@@H](O)CO)C2CCCCC2)[C@H](O)[C@H](C)O1 [(2R,3S) 2,3,4-trihydroxybutanoyl-SerhArgChgGln-SerLeu-DOX (3′)] (X1-S[hArg][Chg]QSL-{Doxorubicin(3'-N)}) |  |  | 45 min | 14.1 µM | > 100 µM |  |  |  |

From patent US6391305B1, “Conjugates useful in the treatment of prostate cancer” (priority 1999, dated 2002)
